From article PMC9145755, “A Small Peptide Increases Drug Delivery in Human Melanoma Cells” (Pharmaceutics, 2022)
Where a SMILES comes first, the peptide text is derived from it. [ ]: non-standard residue; d: D form. Nle = CCCC[C@H](N)C(=O)O

Experiments:
[1] = test system: human melanoma cells (wm3211, Sk-mel-28, A375); assay: In vitro cellular uptake of FITC-labeled peptides by flow cytometry; format: cell-based; details: FITC-labeled peptides 0.5 and 1 µM, A375, Sk-mel-28, wm3211, compared with FITC alone
Method: The peptide (FITC-labeled) concentration was determined using a Shimadzu BioSpec-nano Micro-volume UV-Vis spectrophotometer (Shimadzu, Kyoto, Japan). Human melanoma cells (wm3211, Sk-mel-28, and A375) were incubated with FITC or FITC-labeled peptides at final concentrations of 0.5 µM and 1 µM for 2 h. After thorough washing with cold 1× PBS, the melanoma cells in a single cell suspension were collected for flow cytometry analysis (BD FACSVerse, BD Biosciences, Franklin Lakes, NJ, USA). The mean fluorescence density of 10,000 cells was analyzed and compared to that of control cells, as described previously.

A375 melanoma cells [2] = assay: Fluorescence microscopy of peptide uptake; format: cell-based, human; details: 0.5 µM, 30 min incubation, confocal microscopy, DAPI nuclei
Method: A375 melanoma cells were plated on coverslips and allowed to adhere overnight to 75% confluence, then incubated with 0.5 µM of FITC-KK-11 for 30 min at room temperature. After treatment, cells were washed three times in 1× PBS then fixed with 4% formaldehyde in 1× PBS for 15 min at room temperature. Fixed cells were then washed three times in 1× PBS for 5 min each, followed by curing in the dark with ProLong™ Gold Antifade Mountant with DAPI (P36935, Life Technologies Corporation, Eugene, OR, USA) for 1 h. Slides were visualized and recorded using the Nikon Eclipse Ti2-E confocal microscopy system (Nikon, Melville, NY, USA) using green and blue filters with 60× magnification.

[3] = Serum stability (human serum, RP-HPLC); format: in vitro ADME; details: human serum incubation, 37 °C, data not shown
Method: Human serum (250 µL) was thawed to room temperature and was added to DMEM media (650 µL). The mixture was kept in a 37 °C incubator to mimic human body temperature for 15 min. The peptide (100 µL, 1 mM) was dissolved (dispersed) in sterile water. The peptide solution was added to the pre-warmed human serum and DMEM mixture. The mixture was incubated at 37 °C. At different time points (0, 0.5, 1, 5, and 24 h) aliquots (100 µL) were removed and added to methanol (200 µL). Each time point sample was kept at 4 °C for 5 min, and then was centrifuged at 500× g for 15 min to separate serum proteins. The supernatant was injected into the RP-HPLC, and the major peaks were collected. The peak’s mass was determined using MALDI-TOF mass analysis. The serum stabilities of the D-aa KK-11 were determined by comparing the HPLC peaks (AUC) for the intact peptides at different time points.

A375 melanoma cells [4] = assay: In vitro cytotoxicity, MTT colorimetric assay; format: cell-based, human
Method: Cells were seeded in a 96-well plate and allowed to adhere overnight prior to adding the compound [29]. After 72 h of treatment in serum-free media, an MTT solution was added to each well to give a final concentration of 0.5 mg/mL and was incubated for 3 h. Formed crystals were solubilized, and their absorbance was measured at 595 nm.

[5] = test system: A375 human melanoma xenograft; assay: In vivo xenograft melanoma mouse model; details: KK-11 alone, in vivo studies
Method: The study was carried out in compliance with the ARRIVE guidelines. All the animal studies and procedures were approved by the IACUC at Chapman University and conducted in compliance with the policies of Chapman University, in addition to those of federal, state, and local animal welfare authorities. Nude mice (NU/NU) were purchased from Charles River (Wilmington, MA, USA) and were housed and maintained in the Chapman University vivarium under pathogen-free conditions. A375 cells were suspended in cold Matrigel and injected subcutaneously into the flank of each mouse (1 × 10^6 cells per mouse) to establish tumors. The mice were treated by tail vein injections of 1× PBS, D-aa KK-11 alone (1.75 mg/kg), MAC-3-190 (5 mg/kg) alone, or D-aa KK-11 and MAC-3-190 co-treatment for 21 days. For the co-treatment, the solution of D-aa KK-11 and MAC-3-190 (1:11 molar ratio) was mixed gently and incubated at room temperature for 30 min before tail vein injection. The growth of the tumors was monitored three times a week and measured using digital Vernier calipers. The tumor volume (mm^3) was calculated as [Length × (Width^2)]/2 (in mm). The mice were sacrificed after 21 days per IACUC policy when the control group’s average tumor size reached 2000 mm^3. Tumor xenografts were removed and weighed.

[6] = test system: athymic nude mice bearing human melanoma A375 tumors; assay: In vivo and ex vivo imaging (biodistribution) in mice bearing A375 tumors; details: 8 µg per mouse
Method: The study was carried out in compliance with Animal Research: Reporting of In Vivo Experiments (ARRIVE) guidelines. All the animal procedures were approved by the Institutional Animal Care and Use Committee (IACUC) at Chapman University and conducted in compliance with the policies of Chapman University, in addition to those of federal, state, and local animal welfare authorities. Male and female athymic nude mice (4–6 weeks old) were kept (5 in each cage) in a pathogen-free environment. Approximately 1 million human melanoma A375 cells (0.1 mL in normal saline), mixed with 0.1 mL cold Matrigel (#354248; Corning, Corning, NY, USA), were injected subcutaneously into the flank. The tumor size was measured with a caliper, and body weight was recorded once a week. When the tumor size reached approximately 800–1000 mm^3, as calculated using the following formula: [Length × (Width^2)]/2 (in mm), mice were processed for in vivo or ex vivo imaging.
For in vivo imaging, normal saline or VivoTag-KK-11 at a dose of 8 µg per mouse was injected into the mice via the tail vein (n = 2 for each time point). The animals were then scanned at different time intervals (0.5, 2, 6, and 24 h) using an IVIS Spectrum in vivo imaging system (PerkinElmer, Waltham, MA, USA). The mice were imaged for 0.5 s, 10 bin, level B at an emission wavelength of 688 ± 5 nm. Imaging was limited to no more than once a day and was conducted under continuously maintained isoflurane. Mice were maintained on alfalfa-free diets to minimize the background fluorescence. All the study animals survived through the in vivo imaging procedure.
For ex vivo imaging at defined time intervals (5, 15, 30 min, followed by 1, 1.5, 2, 3, 4, 6, 24, and 48 h) following fluorescence conjugate injection, animals were euthanized via carbon dioxide inhalation (n = 2 for each time point); tumor, liver, spleen, heart, lungs, brain, and kidneys were collected and briefly rinsed with saline. The organs were then imaged for 0.5 s, 10 bin, level B at an emission wavelength of 688 ± 5 nm using an IVIS Spectrum imaging system.

**Q.** With “FITC-Aβ-VPWXEPAYQRFL [FITC-KK-11, KK-11 labeled with FITC at the N-terminus via β-alanine spacer]” as the compound, how does the “Uptake of FITC-labeled peptide by melanoma cells” value [1] read?
**A.** The value was “highest”.

**Q.** What about the “Cellular localisation of FITC-labeled peptide” value (A375 melanoma cells [2]) of the same compound?
**A.** Its value is “present in the cytoplasm”.

**Q.** Which “Time to undetectable level of intact peptide in human serum” value [3] does the source give for `CCCC[C@H](NC(=O)[C@H](Cc1c[nH]c2ccccc12)NC(=O)[C@@H]1CCCN1C(=O)[C@@H](N)C(C)C)C(=O)N[C@@H](CCC(=O)O)C(=O)N1CCC[C@H]1C(=O)N[C@@H](C)C(=O)N[C@@H](Cc1ccc(O)cc1)C(=O)N[C@@H](CCC(N)=O)C(=O)N[C@@H](CCCNC(=N)N)C(=O)N[C@@H](Cc1ccccc1)C(=O)N[C@@H](CC(C)C)C(N)=O` [KK-11] (H-VPW[Nle]EPAYQRFL-NH2) here?
**A.** Its value is at most 30 min.

**Q.** And the “Enhancement of MAC-3-190 cytotoxicity by KK-11 co-treatment” value (A375 melanoma cells [4]; A375, KK-11 1 µM with MAC-3-190 at 25% IC50, 50% IC50, IC50 and 2× IC50, 72 h, MTT, vs MAC-3-190 alone)?
**A.** The value was “did not observe any significant enhancement of cytotoxicity”.

**Q.** And the “Effect of sequential KK-11 then DOX treatment on DOX cytotoxicity” value (A375 melanoma cells [4]; A375, pretreated with KK-11 for 4 h, washed away, then DOX 72 h, MTT)?
**A.** Its value is “failed to produce any changes on DOX cytotoxicity”.

**Q.** And the “Cytotoxicity of peptide alone, in vitro” value (A375 melanoma cells [4]; KK-11 alone, in vitro studies)?
**A.** Its value is “No cytotoxicity”.

**Q.** And the “Cytotoxicity of peptide alone, in vivo” value [5]?
**A.** Its value is “No cytotoxicity”.

**Q.** With `COc1cccc2c1C(=O)c1c(O)c3c(c(O)c1C2=O)C[C@@](O)(C(=O)CO)C[C@@H]3O[C@H]1C[C@H](N)[C@H](O)[C@H](C)O1` [DOX, doxorubicin, reference compound] as the compound, how does the “Cell viability, % of control” value (A375 melanoma cells [4]; A375, DOX 0.5 µM alone, 72 h, serum-free media, MTT) read?
**A.** Its value is 62 % of control.

**Q.** And the “Cell viability (cells survived), % of control” value (A375 melanoma cells [4]; A375, DOX 1 µM alone, 72 h, MTT)?
**A.** Its value is 24%.

**Q.** What does the source list for “VivoTag-Aβ-VPWxEPAYQrFL [VivoTag-KK-11, VivoTag 680 XL labeled D-amino acid analogue of KK-11]”?
**A.** Time post injection up to which fluorescence remained detectable in tumor xenografts, ex vivo imaging ([6]; IV tail vein, A375 xenograft nude mice, excised tumors, IVIS, n = 2 per time point): 24 h; Time after injection by which the peptide distributed to the tumor (and lungs, heart, spleen), ex vivo imaging ([6]; tail vein, A375 xenograft nude mice, IVIS, n = 2 per time point): ≤ 5 min; Brain penetration ([6]; tail vein, ex vivo organ imaging): no brain penetration was observed; Time after injection by which the peptide cleared from other organs ([6]; tail vein, ex vivo organ imaging (lungs, heart, spleen)): ≤ 6 h; Time after injection up to which the peptide was predominantly detected in kidneys ([6]; tail vein, ex vivo organ imaging, after 6 h): 48 h
